Assay results published in patent US12465472B2, “Methods of insect control for an animal, products thereof and methods for their preparation” (priority 2023, dated 2025).

Tests used:
Hermetia illucens larvae [1] = test: Maggot Inhibitory Assay (MIA) with solutions of insecticide or lidocaine infused into wet chicken feed (Example 3); type: in vivo; settings: for insecticide or repellant activity as demonstrated by weight loss and maggot death: solution or neat liquid mixed into wet chicken feed, 5 larvae per dish, ~30 °C
Source text: Determination of anti-myiasis activity by solutions of insecticide, or a lidocaine solution, was studied by Maggot Inhibitory Assay (MIA).
Seven (7) Test and Control Articles: Wet chicken feed (positive control), Tetrahydrafuran infused feed (THF; carrier control), Isopropyl Myristate infused feed (IPM; permeation enhancer control), Lidocaine solution infused feed (LD), Ivermectin infused feed (Iver), Imidacloprid infused feed (IMI), Spinosad infused feed (Spin).
One (1) test organism: Hermetia illucens larvae, “medium size” 3rd instar feeding (crop-full), mean weight 45-60 mg.
• Contact Time: 7 Days • Contact Temperature: 30±2° C. Test Method Overview: See FIG. 10 for Diagrammatic Overview.
Fresh wet chicken feed (WCF) and Hermetia illucens larvae (3rd instar feeding (crop-full) mean weight 45-60 mg) were obtained within 48 hours of the start of the testing. A small (60 mm diameter) petri dish served as the test container for each replicate. Solutions of the test substances were added onto the fresh WCF, and then the WCF with solution was placed into the center of the container and weighed. The POS control utilized an approximately similar-sized sample of fresh WCF, without any solution being added. Five (5) larvae were placed on each test and control article infused the fresh WCF. The lid was placed on the petri dish and the dish was wrapped in parafilm. The test and control containers were kept in an incubator at ˜30° C. temperature, in the dark. Larvae were observed daily for up to two (2) weeks, noting motility and pupation.
A portion of the solution was retained in a sealed glass vial for possible QA/QC. The WCF sample with solution added was mixed thoroughly and left in a fume hood for up to 72 hours to let THE evaporate off.
Test and control containers had about 2.0 g of test solution infused WCF placed into the center of the wetted filter paper.
Each test and control article were prepared in the individual 60 mm petri dishes in triplicate as described, >48 hours before study start. Five (5) larvae were weighed as a group and recorded for each test and control article. The lid was placed on the petri fish and this was wrapped in parafilm, as described. The test and control containers were kept in the incubator at temperature ˜30° C. in the dark. Larvae are observed daily up to two weeks, noting observations on food consumption, weight and pupation.
The weight of the 5 larvae in each assay replicate were determined and recorded by: (a) removing the lid and weighing the container without the lid (larvae+WCF+container); and (b) taring the scale and gently placing the 5 larvae into the lid and recording the total weight.
The results are shown in FIG. 11 as weight gain per maggot over time. At time 0, 5 maggots were placed into each of 3 pre-weighed petri dishes WCF mixed with the following, as described: nothing (OTS), Tetrahydrofuran (THF), Isopropyl Myristate (IPM), Lidocaine (LD), Ivermectin (Iver), Imidacloprid (IMI), or Spinosad (Spin). At each indicated time point, the weight of maggots was recorded and divided by the number of maggots per dish to calculate the weight per maggot. The weight per maggot at time 0 was then subtracted from that at each time point to calculate the weight gain per maggot. Bars represent the mean±standard deviation of 3 replicate petri dishes. In FIG. 11, statistical significance for each solution, relative to the OTS control, was determined using a repeated measures mixed effects model and each petri dish as the experimental unit (fixed effects were time, solution, and time×solution interaction; random effects were individual petri dishes and residuals); p-values were corrected for multiple comparisons with Dunnett's test. *, p<0.05; **, p<0.01; ***, p<0.001; ****, p<0.0001.

Hermetia illucens larvae [2] = test: Maggot Inhibitory Assay (MIA) with ivermectin and lidocaine bands, unused or previously affixed to Holstein calves (Example 4); type: in vivo; settings: positive control solution (1.31 g in 2.35 g THF) in wet chicken feed
Source text: Evaluation of duration of efficacy of anti-myiasis activity by elastomeric bands loaded/infused with insecticide, with or without an active agent for the topical treatment of pain, was studied via ex vivo tissue and band collection and using Maggot Inhibitory Assay (MIA).
Experimental goal: The aim of this experiment was to assess the long-term function of elastomeric bands infused with insecticide, with or without lidocaine, to inhibit the growth of larvae using the novel MIA test disclosed herein, by evaluating the function of ex vivo tissue biopsies taken from scrotal tissue and drug-infused elastomeric bands which were previously placed on Holstein calves for various time periods (3, 7, 14, 21 and 30 days). The protocol used and presented here is based on published literature (Kotze et al., (2022) “Resistance to dicyclanil and imidacloprid in the sheep blowfly, Lucilia cuprina, in Australia”, Pest Manag Sci, 78:4195-4206).
Ivermectin control: A solution of ivermectin was prepared as a positive control (1.31 g ivermectin into 2.35 g of THF). (n=3)
Exposed ILLB: Elastomeric bands infused with ivermectin and lidocaine that were affixed to scrotal sites and removed at each time point. (n=3×5 experiments=15) […]
Animals were randomly allocated to the study. […] Animal IDs and treatment codes were recorded. […] Animals were monitored for any adverse effects. […]

C1CCOC1 [Tetrahydrofuran]
insecticide or repellant activity as demonstrated by weight loss and maggot death (Hermetia illucens larvae [1]): no insecticide or repellant activity

spinosad
insecticide or repellant activity as demonstrated by weight loss and maggot death (Hermetia illucens larvae [1]): effective insecticide or repellant activity

O=[N+]([O-])NC1=NCCN1Cc1ccc(Cl)nc1 [imidacloprid]
insecticide or repellant activity as demonstrated by weight loss and maggot death (Hermetia illucens larvae [1]): effective insecticide or repellant activity

ivermectin
maggot weight change (Hermetia illucens larvae [2]): a decline or no weight gain | insecticide or repellant activity as demonstrated by weight loss and maggot death (Hermetia illucens larvae [1]): effective insecticide or repellant activity

CCCCCCCCCCCCCC(=O)OC(C)C [isopropyl myristate]
insecticide or repellant activity as demonstrated by weight loss and maggot death (Hermetia illucens larvae [1]): no insecticide or repellant activity

CCN(CC)CC(=O)Nc1c(C)cccc1C [lidocaine solution, lidocaine]
activity as an insecticide compared with commercial insecticides (ivermectin, imidacloprid, spinosad) (Hermetia illucens larvae [1]; lidocaine in solution and infused into an elastomeric band): equivalent to commercial insecticides | insecticide or repellant activity as demonstrated by weight loss and maggot death (Hermetia illucens larvae [1]): effective insecticide or repellant activity
